Test results as given in PMC7392676 (BMC Microbiology, 2020).

Tests used:
[1] = tested on: Xff strain Temecula; format: cell-based, Xylella fastidiosa subsp. fastidiosa
[2] = tested on: Xanthomonas axonopodis pv. vesicatoria; details: cited from earlier work
[3] = tested on: Pseudomonas syringae pv. syringae; details: cited from earlier work
[4] = tested on: Erwinia amylovora; details: cited from earlier work
[5] = tested on: Xf; details: cited from earlier work

KDWEHLKDWEHLKDWEHL-OH [tag54]
Log N0/N (log reduction of Xff cell viability) [1]: 0 ± 0 log | antimicrobial activity against Xff cells (in words) [1]: did not show antimicrobial activity | MIC Xav [2]: > 100 µM | MIC Psa [3]: > 100 µM | MIC Ea [4]: > 100 µM

dermaseptin
MIC or MBC against Xf [5]: 8 to 32 µg/mL

gomesin
MIC or MBC against Xf [5]: 4.5 to 9 µg/mL

magainin II
MIC or MBC against Xf [5]: 8 to 64 µg/mL
